# Laboratory results reported in US12139505B2, “Compositions useful in therapy of autophagy-related pathologies, and methods of making and using the same” (The University of Toledo, priority 2017, dated 2024).
# Entries after “also recorded” stand apart in the source; their conditions may differ.
# Legend:
# [1] = tested on: d42-Gal4;UAS-nSyb-GFPxUAS-C9orf72polyGR36 flies; experiment: Fly sleep behavior, C9orf72 ALS model; assay type: in vivo, Drosophila melanogaster
# Procedure: The base for the food was a cornmeal agar product, Nutri-fly BF (Genesee Scientific, Box of 10, 1-liter bags, Cat #66-112). In a 2 L beaker, 1 L of ultrapure water was heated to […], with the stir bar speed set to 600. To the beaker, one bag of Nutri-fly BF was added in small portions. The beaker was covered to maintain temperature (monitored with an inserted thermometer) while stirring as rapidly as possible until the temperature reached 97° C. The food was stirred at this temperature for 10 minutes using a wooden spoon/spatula, then allowed to cool to approximately 65° C. with continuous stirring (magnetic bar). At 65° C., while maintaining constant stirring, 12 mL of Tegosept was added followed by 7 mL of propionic acid solution. To be used as fly maintenance food, the food was allowed to cool to 55° C. and 4 mL of the food was aliquoted (to a depth of approximately 1 inch) into individual vials with mity drosophila plugs (VWR #75813-162 and #10054-506). For use as a drug delivery vehicle, the food was allowed to cool to room temperature while covered with aluminum foil, then sealed with parafilm stored at 4° C. To prepare the food for drug delivery, the food was homogenized at room temperature with an immersion blender. To prepare the drug-infused-food, about half of the calculated food, accurately measured, was added to a 250 mL beaker, followed by the drug (no carrier solvent is used). The drug was then covered with the rest of the food and the contents of the beaker were thoroughly mixed with an overhead mixer (with shroud removed) until the drug was distributed homogeneously within the food. The food was then distributed in 4.00 g aliquots to the vials with plugs (described above). The food-containing vials were centrifuged in 50 mL tubes at an appropriate speed (approximately 1000 to 1400 g) to just force the “drug food” to the bottom of the feeding vial. The vials were closed with the cotton mity plug until use.
# Test flies were transferred individually, under CO2 anesthesia, into 5 mm×65 mm (outside diameter×length) polycarbonate recording tubes with either minimal media or normal fly food on one end and yarn plugs on the other. Sleep parameters were continuously evaluated using the TriKinetics Drosophila activity monitoring system. Sleep is defined as 5 min or more of continuous inactivity, the minimum amount of time to qualify as a single sleep bout. Zeitgeber time (ZT) 0 is defined as the time of lights on and ZT12 is defined as the time of lights off. Mobility (activity) was also monitored and data tabulated based on the number of beam counts and diurnal variations were calculated. The sleep and mobility data were collected and analyzed.
# [2] = tested on: PINK1^B9 flies; experiment: Fly longevity (survival) assay; assay type: in vivo, Drosophila melanogaster
# Procedure: 2-n-hexyl-LKE-P was dissolved in DMSO and supplemented into a warm solution of minimal media (5% sucrose, 2% agarose and water, 60° C.) to a final concentration of 10, 100 and 1000 μM. Freshly eclosed adult flies were transferred to minimal media containing the drug for one day followed by the experiments. 15 flies from each group were placed in a vial containing food, kept on its side to prevent the flies from sticking to the media, at 23° C., 60% humidity, under a 12-h light-dark cycle. Food vials were changed every 2-3 days and the dead flies were counted daily. Over 100 flies were prepared for each genotype and the experiments were carried out three times. The number of surviving flies on each day was converted to surviving days for each fly and imported to GraphPad Prism. Kaplan-Meier surviving curves were graphed and statistics was performed by log-rank test on the surviving data to compare the longevity with different treatment.
# [3] = tested on: RG2 glioma cells; experiment: Proliferative capacity of glioma cells, tetrazolium reduction assay; assay type: cell-based, rat
# Procedure: Biomarkers of autophagy have been positively correlated with relatively better prognosis (longer patient lifespan) in humans suffering from high grade glioma. Accordingly, phosphonate analogs were tested for ability to reduce replicative capacity in RG2 glioma cells wherein the compounds increase autophagy. Cells were plated at low density (approximately 25,000 cells/[…]) using general cell culture methods, and treated with logarithmic dilutions of test agent. After 24 or 48 hours, cell number was estimated by tetrazolium reduction assay using a commercially available kit (Promega Aqueous OneStep™). […] By 48 h the cells had largely achieved confluence and became somewhat contact inhibited, thus reducing the difference between control and treatment groups.
# [4] = tested on: PINK1^B9 flies; experiment: Fly sleep behavior; assay type: in vivo, Drosophila melanogaster
# Procedure: 2-n-hexyl-LKE-P was dissolved in DMSO and supplemented into a warm solution of minimal media (5% sucrose, 2% agarose and water, 60° C.) to a final concentration of 10, 100 and 1000 μM. Freshly eclosed adult flies were transferred to minimal media containing the drug for one day followed by the experiments. Flies were transferred individually, under CO2 anesthesia, into 5 mm×65 mm (outside diameter×length) polycarbonate recording tubes with food on one end and yarn plugs on the other. Sleep parameters were continuously evaluated using the TriKinetics Drosophila activity monitoring system. Sleep is defined as 5 min or more of continuous inactivity, the minimum amount of time to qualify as a single sleep bout. Zeitgeber time (ZT) 0 is defined as the time of lights on, and ZT12 is defined as the time of lights off. Mobility (activity) was also monitored and data tabulated based on the number of beam counts, and diurnal variations were calculated. The sleep and mobility data were collected and analyzed.
compound,measurement,setting,value
CCCCCCC1=C(P(=O)(O)O)N[C@H](C(=O)OCC)CS1 [2-n-hexyl-LKE-P],daytime sleeping time of control flies,[1]; d42-Gal4: UAS-nSyb-GFPxUAS-W1118 control flies,did not change the daytime sleeping time of control flies
same,number of sleep bouts during the day,[1]; polyGR36 in motor neurons,decreased the number of sleep bouts during the day
same,total sleep time,[1]; polyGR36 in motor neurons,increased total sleep time
same,daytime sleepiness / daytime sleeping time of mutant flies,"[1]; polyGR36 in motor neurons, drug in food throughout development",decreased the daytime sleeping time of mutant flies; also recorded: rescued the daytime sleepiness
same,survival of PINK1^B9 flies,[2]; 10 μM in media,did not significantly affect the survival
same,survival of PINK1^B9 flies,[2]; 100 μM in media,did not significantly affect the survival
same,lifespan of PINK1^B9 flies,[2]; 1000 μM in media,extended the lifespan; also recorded: significantly increased the PINK1^B9 lifespan
same,lifespan of PINK1^B9 flies,[2]; dose not stated (summary),more than double the lifespan
same,fewer cells (reduced replicative capacity) relative to cells treated with no drug,"[3]; 24 h, greater than or equal to 1 nM",at least 50%
same,concentration range of the minimum in cell number,[3]; 48 h,1 to 10 mM
same,replication of cultures,[3]; first 24 h,replicated more slowly in the first 24 h
same,sleep of treated wild-type flies versus vehicle-treated wild-type flies,[4]; Day 1 or Day 8,No differences were observed
same,daytime sleep of PINK1^B9 flies,"[4]; day 1, 1000 μM",did not change the sleeping pattern and the daytime sleeping time; also recorded: did not show any changes
same,daytime sleep of PINK1^B9 flies,"[4]; day 8 (one week), 1000 μM",decreased the daytime sleeping time; also recorded: reversal of excessive daytime sleep
